Assays:
MER kinase = MER kinase (Homo sapiens (Human), UniProt Q12866); assay: Assay of small molecular compounds for inhibiting the activity of MER kinase (LANCE TR-FRET); type: biochemical
Summary of the method: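 MER kinase preincubated 5 min at RT with compound (11 points, 0.042-2500 nM final), then ULight-poly GT and ATP added (4× stocks 200 nM and 20 μM) for 60 min at RT, 1% DMSO. Phosphorylation detected by LANCE TR-FRET; IC50 from % inhibition versus controls.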

[1] = system: Ba/F3 LMNA-NTRK1-G595R cells; assay: Assay for inhibiting the proliferation of Ba/F3 LMNA-NTRK1-G595R cells (CCK-8); type: cell-based; settings: Mus musculus, BaF3
Summary of the method: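 Cells seeded in 96-well plates overnight, then exposed 72 h to 9 three-fold dilutions of compound (0.25% DMSO final). Viability by CCK-8 (1-2 h at 37° C., OD 450 nm), survival normalized to untreated and cell-free blanks; IC50 by curve fitting.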

Chain of MER kinase (Q12866 21-999): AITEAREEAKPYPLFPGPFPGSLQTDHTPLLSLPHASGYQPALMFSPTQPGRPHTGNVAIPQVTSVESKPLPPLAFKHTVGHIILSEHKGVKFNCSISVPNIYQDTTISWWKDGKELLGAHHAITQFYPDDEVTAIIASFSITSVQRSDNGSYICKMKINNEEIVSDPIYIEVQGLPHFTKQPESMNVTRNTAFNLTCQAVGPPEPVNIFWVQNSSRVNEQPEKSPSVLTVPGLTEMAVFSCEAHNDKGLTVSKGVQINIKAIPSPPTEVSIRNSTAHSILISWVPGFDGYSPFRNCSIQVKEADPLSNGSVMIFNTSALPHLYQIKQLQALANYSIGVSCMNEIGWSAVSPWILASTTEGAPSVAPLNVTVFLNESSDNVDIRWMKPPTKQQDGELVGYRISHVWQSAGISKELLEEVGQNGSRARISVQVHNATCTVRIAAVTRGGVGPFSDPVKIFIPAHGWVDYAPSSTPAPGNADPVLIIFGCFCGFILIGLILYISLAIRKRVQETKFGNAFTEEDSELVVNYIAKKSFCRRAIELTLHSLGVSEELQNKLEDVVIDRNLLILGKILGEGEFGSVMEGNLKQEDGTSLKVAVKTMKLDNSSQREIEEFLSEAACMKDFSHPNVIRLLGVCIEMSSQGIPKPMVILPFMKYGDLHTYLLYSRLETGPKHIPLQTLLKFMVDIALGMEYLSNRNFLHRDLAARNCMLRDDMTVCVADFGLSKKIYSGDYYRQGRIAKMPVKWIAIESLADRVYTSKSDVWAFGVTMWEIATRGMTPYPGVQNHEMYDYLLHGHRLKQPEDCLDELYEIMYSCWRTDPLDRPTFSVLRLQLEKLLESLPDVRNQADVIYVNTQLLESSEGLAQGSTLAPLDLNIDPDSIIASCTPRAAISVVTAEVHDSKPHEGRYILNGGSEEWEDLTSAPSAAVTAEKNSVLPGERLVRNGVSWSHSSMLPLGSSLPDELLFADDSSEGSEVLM

Row | SMILES | IC50 (MER kinase) [nM] | IC50 [1] [nM]
1 | CC(C)n1cc(C(=O)Nc2ccc(Oc3ccnc4cc(OCCCN5CCS(=O)(=O)CC5)c5c(c34)OCCO5)c(F)c2)c(=O)n(-c2ccc(F)cc2)c1=O [Example 76, N-(3-fluoro-4-((5-(3-(1,1-dioxidothiomorpholino)propoxy)-2,3-dihydro-[1,4]dioxino[2,3-f]quinolin-10-yl)oxy)phenyl)-3-(4-fluorophenyl)-1-isopropyl-2,4-dioxo-1,2,3,4-tetrahydropyrimidine-5-carboxamide] | ≤ 50 | 
2 | CCn1cc(C(=O)Nc2ccc(Oc3ccnc4cc(OCCOC)c5c(c34)OCCO5)c(F)c2)c(=O)n(-c2ccc(F)cc2)c1=O [Example 44, N-(3-fluoro-4-((5-(2-methoxyethoxy)-2,3-dihydro-[1,4]dioxino[2,3-f]quinolin-10-yl)oxy)phenyl)-3-(4-fluorophenyl)-1-ethyl-2,4-dioxo-1,2,3,4-tetrahydropyrimidine-5-carboxamide] | ≤ 50 | ≤ 50
3 | CCOc1ccn(-c2ccc(F)cc2)c(=O)c1C(=O)Nc1ccc(Oc2ccnc3cc(OCCCOC)c4c(c23)OCCO4)c(F)c1 [Example 55, N-(4-((5-(3-methoxypropoxy)-2,3-dihydro-[1,4]dioxino[2,3-f]quinolin-10-yl)oxy)-3-fluorophenyl)-4-ethoxy-1-(4-fluorophenyl)-2-oxo-1,2-dihydropyridine-3-carboxamide] | ≤ 50 | 
4 | COc1cc2nccc(Oc3ccc(NC(=O)c4cn(CCO)c(=O)n(-c5ccc(F)cc5)c4=O)cc3F)c2c2c1OCCO2 [Example 45, N-(3-fluoro-4-((5-methoxy-2,3-dihydro-[1,4]dioxino[2,3-f]quinolin-10-yl)oxy)phenyl)-3-(4-fluorophenyl)-1-(2-hydroxyethyl)-2,4-dioxo-1,2,3,4-tetrahydropyrimidine-5-carboxamide] | ≤ 50 | 
5 | CCOc1ccn(-c2ccc(F)cc2)c(=O)c1C(=O)Nc1ccc(Oc2ccnc3cc(OCCO)c4c(c23)OCCO4)c(F)c1 [Example 53, N-(4-((5-(2-hydroxyethoxy)-2,3-dihydro-[1,4]dioxino[2,3-f]quinolin-10-yl)oxy)-3-fluorophenyl)-4-ethoxy-1-(4-fluorophenyl)-2-oxo-1,2-dihydropyridine-3-carboxamide] | ≤ 50 | 
6 | CCOc1ccn(-c2ccc(F)cc2)c(=O)c1C(=O)Nc1ccc(Oc2ncnc3cc(OC)c4c(c23)OCCO4)c(F)c1 [Example 3, N-(3-fluoro-4-((5-methoxy-2,3-dihydro-[1,4]dioxino[2,3-f]quinazolin-10-yl)oxy)phenyl)-1-(4-fluorophenyl)-4-ethoxy-2-oxo-1,2-dihydropyridine-3-carboxamide] | ≤ 50 | 
7 | CC(C)Oc1cc2nccc(Oc3ccc(NC(=O)c4cn(C)c(=O)n(-c5ccc(F)cc5)c4=O)cc3F)c2c2c1OCCO2 [Example 88, N-(3-fluoro-4-((5-isopropoxy-2,3-dihydro-[1,4]dioxino[2,3-f]quinolin-10-yl)oxy)phenyl)-3-(4-fluorophenyl)-1-methyl-2,4-dioxo-1,2,3,4-tetrahydropyrimidine-5-carboxamide] | ≤ 50 | 
8 | CCOc1ccn(-c2ccc(F)cc2)c(=O)c1C(=O)Nc1ccc(Oc2ccnc3cc(OCCCN4CCN(C(C)=O)CC4)c4c(c23)OCCO4)c(F)c1 [Example 50, N-(4-((5-(3-(4-acetyl-piperazin-1-yl)propoxy)-2,3-dihydro-[1,4]dioxino[2,3-f]quinolin-10-yl)oxy)-3-fluorophenyl)-4-ethoxy-1-(4-fluorophenyl)-2-oxo-1,2-dihydropyridine-3-carboxamide] | ≤ 50 | 
9 | CC(C)n1cc(C(=O)Nc2ccc(Oc3ccnc4cc(OCCO)c5c(c34)OCCO5)c(F)c2)c(=O)n(-c2ccc(F)cc2)c1=O [Example 78, N-(3-fluoro-4-((5-(2-hydroxyethoxy)-2,3-dihydro-[1,4]dioxino[2,3-f]quinolin-10-yl)oxy)phenyl)-3-(4-fluorophenyl)-1-isopropyl-2,4-dioxo-1,2,3,4-tetrahydropyrimidine-5-carboxamide] | ≤ 50 | 50 to 200
10 | CCOc1cn(-c2ccc(F)cc2C)nc1C(=O)Nc1ccc(Oc2ncnc3cc(OCCCN4CCOCC4)c4c(c23)OCCO4)c(F)c1 [Example 12, 1-(4-fluoro-2-methylphenyl)-N-(3-fluoro-4-((5-(3-morpholinopropoxy)-2,3-dihydro-[1,4]dioxino[2,3-f]quinazolin-10-yl)oxy)phenyl)-4-ethoxy-1H-pyrazole-3-carboxamide] | 50 to 500 | 
11 | CCOc1ccn(-c2ccc(F)cc2)c(=O)c1C(=O)Nc1ccc(Oc2ccnc3cc(OC4CCOCC4)c4c(c23)OCCO4)c(F)c1 [Example 66, N-(4-((5-((tetrahydropyran-4-yl)oxy)-2,3-dihydro-[1,4]dioxino[2,3-f]quinolin-10-yl)oxy)-3-fluorophenyl)-4-ethoxy-1-(4-fluorophenyl)-2-oxo-1,2-dihydropyridine-3-carboxamide] | ≤ 50 | 
12 | Cn1cc(C(=O)Nc2ccc(Oc3ccnc4cc(OC5CCOCC5)c5c(c34)OCCO5)c(F)c2)c(=O)n(-c2ccc(F)cc2)c1=O [Example 91, N-(3-fluoro-4-((5-((tetrahydropyran-4-yl)oxy)-2,3-dihydro-[1,4]dioxino[2,3-f]quinolin-10-yl)oxy)phenyl)-3-(4-fluorophenyl)-1-methyl-2,4-dioxo-1,2,3,4-tetrahydropyrimidine-5-carboxamide] | ≤ 50 | 

Now from value to compound:

Row | IC50 (MER kinase) [nM] | IC50 [1] [nM] | SMILES
13 | ≤ 50 | 50 to 200 | COCCOc1cc2nccc(Oc3ccc(NC(=O)c4cn(C(C)C)c(=O)n(-c5ccc(F)cc5)c4=O)cc3F)c2c2c1OCCO2 [Example 43, N-(3-fluoro-4-((5-(2-methoxyethoxy)-2,3-dihydro-[1,4]dioxino[2,3-f]quinolin-10-yl)oxy)phenyl)-3-(4-fluorophenyl)-1-isopropyl-2,4-dioxo-1,2,3,4-tetrahydropyrimidine-5-carboxamide]
14 | ≤ 50 | 200 to 1000 | CC(C)n1cc(C(=O)Nc2ccc(Oc3ccnc4cc(OCCCN5CCCC5)c5c(c34)OCCO5)c(F)c2)c(=O)n(-c2ccc(F)cc2)c1=O [Example 77, N-(3-fluoro-4-((5-(3-(pyrrolidin-1-yl)propoxy)-2,3-dihydro-[1,4]dioxino[2,3-f]quinolin-10-yl)oxy)phenyl)-3-(4-fluorophenyl)-1-isopropyl-2,4-dioxo-1,2,3,4-tetrahydropyrimidine-5-carboxamide]
15 | ≤ 50 | 50 to 200 | CC(C)n1cc(C(=O)Nc2ccc(Oc3ccnc4cc(OCCCO)c5c(c34)OCCO5)c(F)c2)c(=O)n(-c2ccc(F)cc2)c1=O [Example 79, N-(3-fluoro-4-((5-(3-hydroxypropoxy)-2,3-dihydro-[1,4]dioxino[2,3-f]quinolin-10-yl)oxy)phenyl)-3-(4-fluorophenyl)-1-isopropyl-2,4-dioxo-1,2,3,4-tetrahydropyrimidine-5-carboxamide]
16 | ≤ 50 | 200 to 1000 | CC(=O)N1CCN(CCCOc2cc3nccc(Oc4ccc(NC(=O)c5cn(C(C)C)c(=O)n(-c6ccc(F)cc6)c5=O)cc4F)c3c3c2OCCO3)CC1 [Example 75, N-(3-fluoro-4-((5-(3-(4-acetylpiperazin-1-yl)propoxy)-2,3-dihydro-[1,4]dioxino[2,3-f]quinolin-10-yl)oxy)phenyl)-3-(4-fluorophenyl)-1-isopropyl-2,4-dioxo-1,2,3,4-tetrahydropyrimidine-5-carboxamide]
17 | ≤ 50 |  | CCOc1ccn(-c2ccc(F)cc2)c(=O)c1C(=O)Nc1ccc(Oc2ccnc3cc(OCCCN4CCN(C)CC4)c4c(c23)OCCO4)c(F)c1 [Example 49, N-(3-fluoro-4-((5-(3-(4-methylpiperazin-1-yl)propoxy)-2,3-dihydro-[1,4]dioxino[2,3-f]quinolin-10-yl)oxy)phenyl)-1-(4-fluorophenyl)-4-ethoxy-2-oxo-1,2-dihydropyridine-3-carboxamide]
18 | ≤ 50 | 200 to 1000 | CN1CCN(CCCOc2cc3nccc(Oc4ccc(NC(=O)c5cn(C)c(=O)n(-c6ccc(F)cc6)c5=O)cc4F)c3c3c2OCCO3)CC1 [Example 74, N-(3-fluoro-4-((5-(3-(4-methylpiperazin-1-yl)propoxy)-2,3-dihydro-[1,4]dioxino[2,3-f]quinolin-10-yl)oxy)phenyl)-3-(4-fluorophenyl)-1-methyl-2,4-dioxo-1,2,3,4-tetrahydropyrimidine-5-carboxamide]
19 | ≤ 50 | 50 to 200 | Cn1cc(C(=O)Nc2ccc(Oc3ccnc4cc(OC5CCOC5)c5c(c34)OCCO5)c(F)c2)c(=O)n(-c2ccc(F)cc2)c1=O (stereo not drawn) [Example 90, N-(3-fluoro-4-((5-((tetrahydrofuran-3-yl)oxy)-2,3-dihydro-[1,4]dioxino[2,3-f]quinolin-10-yl)oxy)phenyl)-3-(4-fluorophenyl)-1-methyl-2,4-dioxo-1,2,3,4-tetrahydropyrimidine-5-carboxamide]
20 | ≤ 50 |  | CCOc1ccn(-c2ccc(F)cc2)c(=O)c1C(=O)Nc1ccc(Oc2ccnc3cc(OCCCN4CCCC4)c4c(c23)OCCO4)c(F)c1 [Example 52, N-(4-((5-(3-(pyrrolidin-1-yl)propoxy)-2,3-dihydro-[1,4]dioxino[2,3-f]quinolin-10-yl)oxy)-3-fluorophenyl)-4-ethoxy-1-(4-fluorophenyl)-2-oxo-1,2-dihydropyridine-3-carboxamide]
21 | ≤ 50 | 50 to 200 | COCCn1cc(C(=O)Nc2ccc(Oc3ccnc4cc(OC)c5c(c34)OCCO5)c(F)c2)c(=O)n(-c2ccc(F)cc2)c1=O [Example 46, N-(3-fluoro-4-((5-methoxy-2,3-dihydro-[1,4]dioxino[2,3-f]quinolin-10-yl)oxy)phenyl)-3-(4-fluorophenyl)-1-(2-methoxyethyl)-2,4-dioxo-1,2,3,4-tetrahydropyrimidine-5-carboxamide]
